From ChEMBL document CHEMBL5291721, “A preclinical secondary pharmacology resource illuminates target-adverse drug reaction associations of marketed drugs” (Nat Commun, 2023)

How the values were obtained:
[1] = biological target: T1, Adenosine receptor A1 (Homo sapiens, UniProt P30542)
T1 sequence (P30542 whole entry): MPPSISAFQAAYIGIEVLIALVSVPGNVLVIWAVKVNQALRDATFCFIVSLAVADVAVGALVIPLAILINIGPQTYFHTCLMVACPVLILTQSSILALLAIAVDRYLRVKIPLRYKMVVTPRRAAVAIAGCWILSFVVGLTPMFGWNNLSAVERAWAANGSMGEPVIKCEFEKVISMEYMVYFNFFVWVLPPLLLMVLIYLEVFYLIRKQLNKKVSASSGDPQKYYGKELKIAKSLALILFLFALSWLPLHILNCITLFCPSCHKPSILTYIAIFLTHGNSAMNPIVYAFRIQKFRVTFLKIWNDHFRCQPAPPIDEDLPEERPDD

[2] = biological target: T2, Endothelin-1 receptor (Homo sapiens, UniProt P25101)
T2 sequence (P25101 whole entry): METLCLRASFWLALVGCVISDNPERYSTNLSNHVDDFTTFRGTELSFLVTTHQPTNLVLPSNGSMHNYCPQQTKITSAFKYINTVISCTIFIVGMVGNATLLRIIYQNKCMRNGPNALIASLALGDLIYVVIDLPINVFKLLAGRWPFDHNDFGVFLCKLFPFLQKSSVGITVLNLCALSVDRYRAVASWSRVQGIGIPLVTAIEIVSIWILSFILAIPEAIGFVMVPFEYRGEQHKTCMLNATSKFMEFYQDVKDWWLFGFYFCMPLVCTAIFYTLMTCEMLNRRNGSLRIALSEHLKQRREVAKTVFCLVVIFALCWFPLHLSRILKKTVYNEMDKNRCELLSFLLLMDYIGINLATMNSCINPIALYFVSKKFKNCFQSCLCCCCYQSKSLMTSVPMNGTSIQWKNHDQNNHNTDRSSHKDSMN

[3] = biological target: T3, Gastrin/cholecystokinin type B receptor (Homo sapiens, UniProt P32239)
T3 sequence (P32239 whole entry): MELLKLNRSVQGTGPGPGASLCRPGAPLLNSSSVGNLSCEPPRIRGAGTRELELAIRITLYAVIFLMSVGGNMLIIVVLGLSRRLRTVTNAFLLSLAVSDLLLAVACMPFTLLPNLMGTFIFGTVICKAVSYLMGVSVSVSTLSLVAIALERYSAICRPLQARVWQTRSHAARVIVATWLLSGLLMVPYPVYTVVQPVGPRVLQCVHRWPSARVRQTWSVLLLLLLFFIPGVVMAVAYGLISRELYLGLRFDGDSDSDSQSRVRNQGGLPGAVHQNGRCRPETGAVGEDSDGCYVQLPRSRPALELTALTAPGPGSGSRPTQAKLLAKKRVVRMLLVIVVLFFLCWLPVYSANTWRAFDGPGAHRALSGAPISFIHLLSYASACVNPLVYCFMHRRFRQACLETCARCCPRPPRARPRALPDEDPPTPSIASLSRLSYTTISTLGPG

[4] = biological target: Histamine H3 receptor (Homo sapiens, UniProt Q9Y5N1)
Sequence of Histamine H3 receptor (Q9Y5N1 whole entry): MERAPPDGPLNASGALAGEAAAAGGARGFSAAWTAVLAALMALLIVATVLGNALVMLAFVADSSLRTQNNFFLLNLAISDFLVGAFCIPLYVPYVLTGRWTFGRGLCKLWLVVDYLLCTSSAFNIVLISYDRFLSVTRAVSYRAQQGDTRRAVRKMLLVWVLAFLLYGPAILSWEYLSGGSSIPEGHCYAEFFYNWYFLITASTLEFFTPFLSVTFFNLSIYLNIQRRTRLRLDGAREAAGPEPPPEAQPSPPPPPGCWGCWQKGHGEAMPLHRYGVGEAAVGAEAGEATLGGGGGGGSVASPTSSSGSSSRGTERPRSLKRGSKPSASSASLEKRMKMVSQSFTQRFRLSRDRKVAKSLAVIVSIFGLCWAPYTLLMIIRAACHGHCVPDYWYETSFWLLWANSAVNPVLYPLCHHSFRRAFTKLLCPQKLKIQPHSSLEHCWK

[5] = biological target: Muscarinic acetylcholine receptor M3 (Homo sapiens, UniProt P20309)
Sequence of Muscarinic acetylcholine receptor M3 (P20309 whole entry): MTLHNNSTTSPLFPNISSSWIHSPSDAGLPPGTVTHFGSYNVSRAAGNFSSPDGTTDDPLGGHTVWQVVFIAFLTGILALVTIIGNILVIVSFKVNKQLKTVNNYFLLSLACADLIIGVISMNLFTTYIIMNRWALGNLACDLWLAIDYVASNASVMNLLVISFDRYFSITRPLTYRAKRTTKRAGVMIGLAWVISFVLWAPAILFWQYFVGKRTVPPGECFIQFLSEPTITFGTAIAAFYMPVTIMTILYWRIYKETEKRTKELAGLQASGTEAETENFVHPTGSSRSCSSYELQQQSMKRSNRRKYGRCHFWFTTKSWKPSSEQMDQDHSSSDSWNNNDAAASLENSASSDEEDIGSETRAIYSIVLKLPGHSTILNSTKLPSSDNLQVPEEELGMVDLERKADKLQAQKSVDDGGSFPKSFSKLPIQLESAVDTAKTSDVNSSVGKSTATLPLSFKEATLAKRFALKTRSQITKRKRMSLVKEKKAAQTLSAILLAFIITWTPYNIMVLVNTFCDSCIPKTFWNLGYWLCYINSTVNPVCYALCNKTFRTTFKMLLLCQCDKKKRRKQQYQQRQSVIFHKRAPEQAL

[6] = biological target: T4, Equilibrative nucleoside transporter 1 (Homo sapiens, UniProt Q99808)
T4 sequence (Q99808 whole entry): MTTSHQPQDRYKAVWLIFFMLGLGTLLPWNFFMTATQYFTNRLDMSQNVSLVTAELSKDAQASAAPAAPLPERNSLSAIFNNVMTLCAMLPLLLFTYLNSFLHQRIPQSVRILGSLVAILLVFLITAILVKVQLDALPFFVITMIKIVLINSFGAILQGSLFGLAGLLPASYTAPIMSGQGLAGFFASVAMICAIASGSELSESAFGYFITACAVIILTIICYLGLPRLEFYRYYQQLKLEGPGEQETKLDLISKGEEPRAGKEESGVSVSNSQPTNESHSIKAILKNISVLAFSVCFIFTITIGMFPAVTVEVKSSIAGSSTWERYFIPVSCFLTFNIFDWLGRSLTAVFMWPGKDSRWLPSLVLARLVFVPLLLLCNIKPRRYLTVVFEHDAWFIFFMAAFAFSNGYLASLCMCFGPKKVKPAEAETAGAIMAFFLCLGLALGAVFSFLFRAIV

[7] = biological target: T5, Muscarinic acetylcholine receptor M1 (Homo sapiens, UniProt P11229); type: functional
T5 sequence (P11229 whole entry): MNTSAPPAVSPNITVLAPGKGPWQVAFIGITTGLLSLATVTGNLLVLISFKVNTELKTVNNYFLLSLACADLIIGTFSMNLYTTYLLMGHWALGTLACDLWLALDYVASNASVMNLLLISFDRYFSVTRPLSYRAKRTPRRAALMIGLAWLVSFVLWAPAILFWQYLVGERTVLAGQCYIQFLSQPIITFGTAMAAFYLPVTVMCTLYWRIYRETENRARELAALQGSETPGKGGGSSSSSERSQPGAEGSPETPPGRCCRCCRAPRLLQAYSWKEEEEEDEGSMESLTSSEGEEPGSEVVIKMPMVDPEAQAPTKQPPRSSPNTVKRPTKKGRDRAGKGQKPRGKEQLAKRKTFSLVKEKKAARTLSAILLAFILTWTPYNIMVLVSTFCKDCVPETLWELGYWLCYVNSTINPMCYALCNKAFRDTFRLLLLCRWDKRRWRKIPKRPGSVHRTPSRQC

[8] = biological target: T6, Muscarinic acetylcholine receptor M2 (Homo sapiens, UniProt P08172); type: functional, cell-based
T6 sequence (P08172 whole entry): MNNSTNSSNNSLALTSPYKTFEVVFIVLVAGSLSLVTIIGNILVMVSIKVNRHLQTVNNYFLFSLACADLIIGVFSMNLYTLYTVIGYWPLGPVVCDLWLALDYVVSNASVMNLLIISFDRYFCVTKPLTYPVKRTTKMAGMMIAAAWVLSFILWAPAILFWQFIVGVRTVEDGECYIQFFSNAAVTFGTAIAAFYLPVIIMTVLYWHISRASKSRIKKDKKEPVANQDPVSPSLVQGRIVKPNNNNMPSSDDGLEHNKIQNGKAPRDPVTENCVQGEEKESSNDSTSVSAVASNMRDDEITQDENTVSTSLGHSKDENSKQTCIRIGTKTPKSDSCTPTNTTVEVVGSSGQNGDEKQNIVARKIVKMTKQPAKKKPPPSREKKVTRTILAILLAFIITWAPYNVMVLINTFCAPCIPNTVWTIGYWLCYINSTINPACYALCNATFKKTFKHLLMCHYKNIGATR

[9] = biological target: Beta-2 adrenergic receptor (Homo sapiens, UniProt P07550); type: functional, cell-based
Sequence of Beta-2 adrenergic receptor (P07550 whole entry): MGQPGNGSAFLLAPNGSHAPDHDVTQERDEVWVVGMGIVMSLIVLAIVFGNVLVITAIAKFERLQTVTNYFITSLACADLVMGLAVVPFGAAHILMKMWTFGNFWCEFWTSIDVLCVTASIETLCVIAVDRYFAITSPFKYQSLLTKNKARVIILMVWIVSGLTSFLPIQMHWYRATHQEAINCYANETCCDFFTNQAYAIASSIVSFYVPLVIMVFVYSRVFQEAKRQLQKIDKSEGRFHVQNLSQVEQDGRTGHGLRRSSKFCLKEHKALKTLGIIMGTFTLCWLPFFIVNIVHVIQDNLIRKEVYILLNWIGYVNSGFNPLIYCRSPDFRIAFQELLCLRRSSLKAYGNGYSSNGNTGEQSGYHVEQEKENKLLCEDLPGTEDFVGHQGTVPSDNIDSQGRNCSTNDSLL

[10] = biological target: Gamma-aminobutyric acid receptor subunit alpha-1/alpha-2/beta-2/gamma-2 (Homo sapiens, UniProt P14867+P18507+P47869+P47870); type: protein-complex assay
Sequence of Gamma-aminobutyric acid receptor subunit alpha-1/alpha-2/beta-2/gamma-2 (P14867 whole entry): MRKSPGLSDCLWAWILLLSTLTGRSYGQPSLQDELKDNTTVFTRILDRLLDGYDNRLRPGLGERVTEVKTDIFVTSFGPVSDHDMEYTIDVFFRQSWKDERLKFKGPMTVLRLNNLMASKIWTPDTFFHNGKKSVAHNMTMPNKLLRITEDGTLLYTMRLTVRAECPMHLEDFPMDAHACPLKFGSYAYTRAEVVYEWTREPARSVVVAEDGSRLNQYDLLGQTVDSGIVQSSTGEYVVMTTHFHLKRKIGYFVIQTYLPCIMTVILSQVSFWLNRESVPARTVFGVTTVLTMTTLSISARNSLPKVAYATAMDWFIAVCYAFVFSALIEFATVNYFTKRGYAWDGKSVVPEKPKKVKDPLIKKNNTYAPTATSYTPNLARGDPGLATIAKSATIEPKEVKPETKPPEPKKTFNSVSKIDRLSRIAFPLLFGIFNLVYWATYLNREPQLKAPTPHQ
Sequence of Gamma-aminobutyric acid receptor subunit alpha-1/alpha-2/beta-2/gamma-2 (P47870 whole entry): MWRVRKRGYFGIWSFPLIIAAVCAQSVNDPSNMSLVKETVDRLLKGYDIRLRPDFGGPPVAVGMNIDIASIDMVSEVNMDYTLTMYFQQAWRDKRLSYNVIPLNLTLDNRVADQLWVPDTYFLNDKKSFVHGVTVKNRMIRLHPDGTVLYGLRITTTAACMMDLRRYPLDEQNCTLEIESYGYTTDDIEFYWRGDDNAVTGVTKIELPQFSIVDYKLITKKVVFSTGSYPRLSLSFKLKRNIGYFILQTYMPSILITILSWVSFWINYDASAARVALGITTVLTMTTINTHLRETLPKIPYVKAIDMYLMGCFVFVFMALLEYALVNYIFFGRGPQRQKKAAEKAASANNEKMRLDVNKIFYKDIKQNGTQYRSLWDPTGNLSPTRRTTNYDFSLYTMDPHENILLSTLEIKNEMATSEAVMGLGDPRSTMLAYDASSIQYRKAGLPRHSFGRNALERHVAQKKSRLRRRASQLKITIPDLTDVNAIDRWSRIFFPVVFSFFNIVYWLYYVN
Sequence of Gamma-aminobutyric acid receptor subunit alpha-1/alpha-2/beta-2/gamma-2 (P18507 whole entry): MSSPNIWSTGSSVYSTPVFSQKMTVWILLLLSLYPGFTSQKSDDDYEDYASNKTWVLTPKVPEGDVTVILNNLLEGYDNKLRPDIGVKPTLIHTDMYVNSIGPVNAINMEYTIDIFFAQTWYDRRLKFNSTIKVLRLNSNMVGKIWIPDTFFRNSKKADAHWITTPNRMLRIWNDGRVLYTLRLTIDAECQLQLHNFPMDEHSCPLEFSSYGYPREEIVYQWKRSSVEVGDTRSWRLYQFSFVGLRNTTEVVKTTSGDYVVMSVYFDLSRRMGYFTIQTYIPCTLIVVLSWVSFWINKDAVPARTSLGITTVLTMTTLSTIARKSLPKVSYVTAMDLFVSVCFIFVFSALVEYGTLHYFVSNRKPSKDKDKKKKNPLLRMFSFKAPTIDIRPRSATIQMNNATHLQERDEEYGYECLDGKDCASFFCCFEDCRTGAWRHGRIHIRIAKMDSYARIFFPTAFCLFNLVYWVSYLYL
Sequence of Gamma-aminobutyric acid receptor subunit alpha-1/alpha-2/beta-2/gamma-2 (P47869 whole entry): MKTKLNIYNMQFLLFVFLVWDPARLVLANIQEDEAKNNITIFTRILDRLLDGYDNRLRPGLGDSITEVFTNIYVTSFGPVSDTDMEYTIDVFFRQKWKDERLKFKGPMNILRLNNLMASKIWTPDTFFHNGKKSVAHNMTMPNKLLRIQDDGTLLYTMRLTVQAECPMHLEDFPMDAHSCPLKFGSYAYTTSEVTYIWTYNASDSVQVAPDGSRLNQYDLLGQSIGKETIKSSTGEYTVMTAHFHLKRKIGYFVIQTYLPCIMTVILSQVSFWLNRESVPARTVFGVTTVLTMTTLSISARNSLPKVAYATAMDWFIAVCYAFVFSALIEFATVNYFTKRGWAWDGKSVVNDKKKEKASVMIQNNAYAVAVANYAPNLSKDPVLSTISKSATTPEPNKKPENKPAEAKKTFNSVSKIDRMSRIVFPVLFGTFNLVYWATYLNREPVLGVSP

[11] = biological target: 5-hydroxytryptamine receptor 2A (Homo sapiens, UniProt P28223); type: functional, cell-based
Sequence of 5-hydroxytryptamine receptor 2A (P28223 whole entry): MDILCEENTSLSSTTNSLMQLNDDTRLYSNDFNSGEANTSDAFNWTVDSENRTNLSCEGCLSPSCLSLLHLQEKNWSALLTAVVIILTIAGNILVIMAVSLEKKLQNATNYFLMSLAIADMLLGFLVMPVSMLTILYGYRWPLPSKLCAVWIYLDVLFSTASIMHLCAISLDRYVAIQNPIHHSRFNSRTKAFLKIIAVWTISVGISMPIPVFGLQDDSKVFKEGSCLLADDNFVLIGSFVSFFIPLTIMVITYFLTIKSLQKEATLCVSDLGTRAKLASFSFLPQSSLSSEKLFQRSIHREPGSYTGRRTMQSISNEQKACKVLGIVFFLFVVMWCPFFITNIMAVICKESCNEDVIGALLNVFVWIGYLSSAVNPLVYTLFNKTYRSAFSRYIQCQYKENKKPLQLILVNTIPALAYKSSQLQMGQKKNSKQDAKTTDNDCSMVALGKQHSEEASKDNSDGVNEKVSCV
Note: assay procedure not described here.

SMILES	AC50 [1] [µM]	AC50 [3] [µM]	AC50 [6] [µM]	AC50 [8] [µM]	other results
CC1(C)S[C@@H]2[C@H](/N=C/N3CCCCCC3)C(=O)N2[C@H]1C(=O)O [AMDINOCILLIN]	> 30				
O=C(/C=C/c1cccc(S(=O)(=O)Nc2ccccc2)c1)NO [BELINOSTAT]	> 30	> 30	> 30		AC50 [2]: > 10 µM; AC50 [4]: > 10 µM; AC50 [5]: > 30 µM; AC50 [7]: > 10 µM
CC(O)(CS(=O)(=O)c1ccc(F)cc1)C(=O)Nc1ccc(C#N)c(C(F)(F)F)c1 (centres undefined) [BICALUTAMIDE]	> 30	> 30	> 30	> 10	AC50 [2]: > 30 µM; AC50 [4]: > 30 µM; AC50 [9]: > 30 µM
CC(C)(C)NC(=O)N[C@H](C(=O)N1C[C@H]2[C@@H]([C@H]1C(=O)NC(CC1CCC1)C(=O)C(N)=O)C2(C)C)C(C)(C)C (some centres undefined) [BOCEPREVIR]	> 30				
NC[C@H]1CC[C@H](C(=O)Oc2ccc(CCC(=O)O)cc2)CC1 [CETRAXATE]	> 30			> 30	AC50 [9]: > 30 µM
CC(=O)O[C@]1(C(C)=O)CC[C@H]2[C@@H]3C=C(Cl)C4=CC(=O)[C@@H]5C[C@@H]5[C@]4(C)[C@H]3CC[C@@]21C [CYPROTERONE ACETATE]	> 30	> 30	> 30		AC50 [4]: > 10 µM
C[C@@H]1C[C@H]2[C@@H]3C[C@H](F)C4=CC(=O)C=C[C@]4(C)[C@@]3(F)[C@@H](O)C[C@]2(C)[C@@]1(OC(=O)c1ccco1)C(=O)SCF [FLUTICASONE FUROATE]	> 30	> 10	> 10	> 10	AC50 [2]: > 10 µM; AC50 [5]: > 30 µM; AC50 [7]: > 10 µM
O=C(CCC/C=C\C[C@@H]1[C@@H](CC[C@@H](O)CCc2ccccc2)[C@H](O)C[C@@H]1O)OCCCCO[N+](=O)[O-] [LATANOPROSTENE BUNOD]	> 30				
COC(=O)C[C@](O)(CCCC(C)(C)O)C(=O)O[C@@H]1C(OC)=C[C@]23CCCN2CCc2cc4c(cc2[C@H]13)OCO4 [OMACETAXINE MEPESUCCINATE]	> 30				
COC(=O)[C@H]1[C@H]2C[C@@H]3c4[nH]c5cc(OC)ccc5c4CCN3C[C@H]2C[C@@H](OC(=O)c2cc(OC)c(OC)c(OC)c2)[C@@H]1OC [RESERPINE]			28.5	> 10	AC50 [10]: > 10 µM
COc1cc(C)c2c(Oc3cccc(C(F)(F)F)c3)c(OC)cc(NC(C)CCCN)c2n1 (centres undefined) [TAFENOQUINE]	> 30				
O=S1(=O)CCN(CN2CCS(=O)(=O)NC2)CN1 [TAUROLIDINE]	> 30		> 30	> 30	AC50 [11]: > 30 µM; AC50 [5]: > 30 µM; AC50 [9]: > 30 µM; AC50 [7]: > 30 µM
COc1ccc2c(C(=S)N(C)CC(=O)O)cccc2c1C(F)(F)F [TOLRESTAT]	> 30				
